Test results as given in patent publication US12570675B2, “Boronic acid compounds” (LG CHEM, LTD., priority 2020, dated 2026).

Experiments:
[1] = target: Proteasome chymotrypsin-like activity (S26 protein from RPMI8226 cells) (Homo sapiens, UniProt P28074); type: biochemical; conditions: S26 protein from RPMI8226 cell extract 2 ug/well, substrate 20 uM, 37° C., 90 minutes; read-out: Proteasome chymotrypsin-like activity inhibition IC50
How it was run: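 S26 proteasome fraction from homogenized RPMI8226 myeloma cells in 20 mM Tris-HCl pH 8.0 (2 ug extract/well) incubated 90 min at 37 °C with compound serially diluted from 10 uM (0.5% DMSO).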

[2] = target: Proteasome caspase-like activity (S26 protein from RPMI8226 cells) (Homo sapiens (Human), UniProt P28072); assay: Proteasome caspase-like activity inhibition (Z-Leu-Leu-Glu-AMC fluorogenic substrate, RPMI8226 cell extract); type: biochemical; conditions: S26 protein from RPMI8226 cell extract 2 ug/well, substrate 20 uM, 37° C., 90 minutes
Description: The abilities to inhibit the proteasome activity of the compounds described in the Examples of the present invention and boronic acid drugs were evaluated as follows.
RPMI8226 cells, which is a multiple myeloma cell line, were cultured and then separated by a centrifuge, and washed twice with phosphate buffered saline (PBS). 20 mM of a tris-HCl (pH 8.0) buffer solution was added to the washed cells, and the cells were disrupted by a homogenizer and centrifuged to obtain S26 protein from the supernatant. Suc-Leu-Leu-Val-Tyr-AMC, for a fluorogenic substrate for the chymotrypsin-like activity of the proteasome, and Z-Leu-Leu-Glu-AMC, for a fluorogenic substrate for the caspase-like activity, were purchased from Calbiochem, EMD Millipore and used. Into each well of a 96-well plate (opaque, black round bottom), 20 ul of the S26 protein (final RPMI8226 cell extract concentration: 2 ug/well), 10 ul of S26 proteasome inhibitor serially diluted from 10 uM (final DMSO concentration: 0.5%), and 20 ul of the fluorogenic substrate for the proteasome chymotrypsin-like or caspase-like activity (final concentration: 20 uM) were added and mixed and allowed to react in a 37° C. incubator for 90 minutes. The fluorescence of the fluorogenic substrate was measured by FlexStation II Fluorometer (Molecular Devices). The fluorescence inhibited by the compound diluted at each concentration was measured as the relative percentage value for the amount obtained from the treatment only with the S26 protein and the fluorogenic substrate. IC50 (inhibitory concentration 50) was expressed in terms of a concentration that inhibits 50% of the maximum fluorescence induced by the fluorogenic substrate.

Proteasome caspase-like activity (S26 protein from RPMI8226 cells), sequence (P28072 whole entry): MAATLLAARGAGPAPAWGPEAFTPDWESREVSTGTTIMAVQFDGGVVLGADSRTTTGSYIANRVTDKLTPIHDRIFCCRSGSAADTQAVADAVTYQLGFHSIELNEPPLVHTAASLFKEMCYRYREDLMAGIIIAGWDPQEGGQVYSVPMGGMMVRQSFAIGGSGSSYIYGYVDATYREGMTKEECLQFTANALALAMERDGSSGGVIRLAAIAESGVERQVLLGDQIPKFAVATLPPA
Proteasome chymotrypsin-like activity (S26 protein from RPMI8226 cells), sequence (P28074 60-263 limits assumed): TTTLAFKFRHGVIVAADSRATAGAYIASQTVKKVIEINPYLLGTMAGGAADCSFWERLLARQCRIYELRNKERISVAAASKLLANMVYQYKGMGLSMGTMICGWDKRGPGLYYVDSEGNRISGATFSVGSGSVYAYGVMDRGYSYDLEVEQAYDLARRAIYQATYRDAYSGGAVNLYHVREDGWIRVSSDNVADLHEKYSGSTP

IC50 [1] [nM]	IC50 [2] [nM]	SMILES
< 10	> 500	CC(C)C[C@H](NC(=O)C1(Cc2ccccc2)CC(CNC(=O)c2cccc3ccccc23)=NO1)B(O)O (stereo partly drawn) [Example 92, ((1R)-1-(3-((1-naphthamido)methyl)-5-benzyl-4,5-dihydroisoxazol-5-carboxamido)-3-methylbutyl)boronic acid]
< 10	> 1000	COc1cccc(CC2(C(=O)N[C@@H](CC(C)C)B(O)O)CC(CNC(=O)c3nccc4ccccc34)=NO2)c1 (stereo partly drawn) [Example 100, ((1R)-1-(3-((isoquinolin-1-carboxamido)methyl)-5-(3-methoxybenzyl)-4,5-dihydroisoxazol-5-carboxamido)-3-methylbutyl)boronic acid]
< 10	> 500	CC(C)C[C@H](NC(=O)C1(Cc2ccccc2)CC(CNC(=O)c2cccc3cccnc23)=NO1)B(O)O (stereo partly drawn) [Example 113, ((1R)-1-(5-benzyl-3-((quinolin-8-carboxamido)methyl)-4,5-dihydroisoxazol-5-carboxamido)-3-methylbutyl)boronic acid]
< 10	> 1000	CC(C)C[C@H](NC(=O)C1(Cc2ccccc2)CC(CNC(=O)c2cccc3c2CCCC3)=NO1)B(O)O (stereo partly drawn) [Example 115, ((1R)-1-(5-benzyl-3-((5,6,7,8-tetrahydronaphthalen-1-carboxamido)methyl)-4,5-dihydroisoxazol-5-carboxamido)-3-methylbutyl)boronic acid]
< 10	> 2500	CC(C)C[C@H](NC(=O)C1(Cc2ccccc2)CC(CNC(=O)c2cccc3ncccc23)=NO1)B(O)O (stereo partly drawn) [Example 116, ((1R)-1-(5-benzyl-3-((quinolin-5-carboxamido)methyl)-4,5-dihydroisoxazol-5-carboxamido)-3-methylbutyl)boronic acid]
< 10	> 500	CC(C)C[C@H](NC(=O)C1(Cc2ccccc2)CC(CNC(=O)c2c[nH]c3ccccc23)=NO1)B(O)O (stereo partly drawn) [Example 124, ((1R)-1-(3-((1H-indol-3-carboxamido)methyl)-5-benzyl-4,5-dihydroisoxazol-5-carboxamido)-3-methylbutyl)boronic acid]
< 10	> 500	Cc1cccc(CC2(C(=O)N[C@@H](CC(C)C)B(O)O)CC(CNC(=O)c3nccc4ccccc34)=NO2)c1 (stereo partly drawn) [Example 125, ((1R)-1-(3-((isoquinolin-1-carboxamido)methyl)-5-(3-methylbenzyl)-4,5-dihydroisoxazol-5-carboxamido)-3-methylbutyl)boronic acid]
< 10	> 500	CC(C)C[C@H](NC(=O)C1(Cc2ccccc2)CC(CNC(=O)c2cccc3[nH]ccc23)=NO1)B(O)O (stereo partly drawn) [Example 127, ((1R)-1-(3-((1H-indol-4-carboxamido)methyl)-5-benzyl-4,5-dihydroisoxazol-5-carboxamido)-3-methylbutyl)boronic acid]
< 10	> 250	CC(C)C[C@H](NC(=O)C1(Cc2ccccc2)CC(CNC(=O)c2cccn3ccnc23)=NO1)B(O)O (stereo partly drawn) [Example 132, ((1R)-1-(5-benzyl-3-((imidazo[1,2-a]pyridin-8-carboxamido)methyl)-4,5-dihydroisoxazol-5-carboxamido)-3-methylbutyl)boronic acid]
< 10	> 500	CC(C)C[C@H](NC(=O)C1(Cc2ccccc2)CC(CNC(=O)c2cccc3c2ccn3C(C)C)=NO1)B(O)O (stereo partly drawn) [Example 134, ((1R)-1-(5-benzyl-3-((1-isopropyl-1H-indol-4-carboxamido)methyl)-4,5-dihydroisoxazol-5-carboxamido)-3-methylbutyl)boronic acid]
< 10	> 500	CC(C)C[C@H](NC(=O)C1(Cc2ccccc2)CC(CNC(=O)c2cccc3c2ccn3C)=NO1)B(O)O (stereo partly drawn) [Example 138, ((1R)-1-(5-benzyl-3-((1-methyl-1H-indol-4-carboxamido)methyl)-4,5-dihydroisoxazol-5-carboxamido)-3-methylbutyl)boronic acid]

Continued, compound first:

SMILES	IC50 [1] [nM]	IC50 [2] [nM]
CC(C)C[C@H](NC(=O)C1(C)CC(CNC(=O)c2cc(Cl)ccc2Cl)=NO1)B(O)O (stereo partly drawn) [Example 86, ((1R)-1-(3-((2,5-dichlorobenzamido)methyl)-5-methyl-4,5-dihydroisoxazol-5-carboxamido)-3-methylbutyl)boronic acid]	< 50	> 2500
CCC1(C(=O)N[C@@H](CC(C)C)B(O)O)CC(CNC(=O)c2cc(Cl)ccc2Cl)=NO1 (stereo partly drawn) [Example 87, ((1R)-1-(3-((2,5-dichlorobenzamido)methyl)-5-ethyl-4,5-dihydroisoxazol-5-carboxamido)-3-methylbutyl)boronic acid]	< 50	> 2500
CCCC1(C(=O)N[C@@H](CC(C)C)B(O)O)CC(CNC(=O)c2cc(Cl)ccc2Cl)=NO1 (stereo partly drawn) [Example 88, ((1R)-1-(3-((2,5-dichlorobenzamido)methyl)-5-propyl-4,5-dihydroisoxazol-5-carboxamido)-3-methylbutyl)boronic acid]	< 25	> 2500
Cc1cc(C(=O)NCC2=NOC(Cc3ccccc3)(C(=O)N[C@@H](CC(C)C)B(O)O)C2)no1 (stereo partly drawn) [Example 107, ((1R)-1-(5-benzyl-3-((5-methylisoxazol-3-carboxamido)methyl)-4,5-dihydroisoxazol-5-carboxamido)-3-methylbutyl)boronic acid]	< 10	> 500
CC(C)C[C@H](NC(=O)C1(Cc2ccccc2)CC(CNC(=O)c2cc(C(F)(F)F)ccc2Cl)=NO1)B(O)O (stereo partly drawn) [Example 112, ((1R)-1-(5-benzyl-3-((2-chloro-5-(trifluoromethyl)benzamido)methyl)-4,5-dihydroisoxazol-5-carboxamido)-3-methylbutyl)boronic acid]	< 10	> 2500
Cc1nc(C(=O)NCC2=NOC(Cc3ccccc3)(C(=O)N[C@@H](CC(C)C)B(O)O)C2)cs1 (stereo partly drawn) [Example 117, ((1R)-1-(5-benzyl-3-((2-methylthiazol-4-carboxamido)methyl)-4,5-dihydroisoxazol-5-carboxamido)-3-methylbutyl)boronic acid]	< 10	> 1000
Cc1nc(C(=O)NCC2=NOC(Cc3ccccc3)(C(=O)N[C@@H](CC(C)C)B(O)O)C2)c(Cl)s1 (stereo partly drawn) [Example 119, ((1R)-1-(5-benzyl-3-((5-chloro-2-methylthiazol-4-carboxamido)methyl)-4,5-dihydroisoxazol-5-carboxamido)-3-methylbutyl)boronic acid]	< 10	> 1000
CC(C)C[C@H](NC(=O)C1(COc2ccccc2)CC(CNC(=O)c2nccc3ccccc23)=NO1)B(O)O (stereo partly drawn) [Example 126, ((1R)-1-(3-((isoquinolin-1-carboxamido)methyl)-5-(phenoxymethyl)-4,5-dihydroisoxazol-5-carboxamido)-3-methylbutyl)boronic acid]	< 10	> 500
CC(C)C[C@H](NC(=O)C1(Cc2ccccc2)CC(CNC(=O)c2ccc3c(ccn3C(C)C)c2)=NO1)B(O)O (stereo partly drawn) [Example 129, ((1R)-1-(5-benzyl-3-((1-isopropyl-1H-indol-5-carboxamido)methyl)-4,5-dihydroisoxazol-5-carboxamido)-3-methylbutyl)boronic acid]	< 10	> 250
Cc1nc(C)c(C(=O)NCC2=NOC(Cc3ccccc3)(C(=O)N[C@@H](CC(C)C)B(O)O)C2)s1 (stereo partly drawn) [Example 130, ((1R)-1-(5-benzyl-3-((2,4-dimethylthiazol-5-carboxamido)methyl)-4,5-dihydroisoxazol-5-carboxamido)-3-methylbutyl)boronic acid]	< 10	> 500
Cc1nc2ccccn2c1C(=O)NCC1=NOC(Cc2ccccc2)(C(=O)N[C@@H](CC(C)C)B(O)O)C1 (stereo partly drawn) [Example 133, ((1R)-1-(5-benzyl-3-((2-methylimidazo[1,2-a]pyridin-3-carboxamido)methyl)-4,5-dihydroisoxazol-5-carboxamido)-3-methylbutyl)boronic acid]	< 10	> 500
Cc1nc(C)c(C(=O)NCC2=NOC(COc3ccccc3)(C(=O)N[C@@H](CC(C)C)B(O)O)C2)s1 (stereo partly drawn) [Example 141, ((1R)-1-(3-((2,4-dimethylthiazol-5-carboxamido)methyl)-5-(phenoxymethyl)-4,5-dihydroisoxazol-5-carboxamido)-3-methylbutyl)boronic acid]	< 10	> 500
CC(C)C[C@H](NC(=O)C1(Cc2ccccc2)CC(CNS(=O)(=O)c2cc(Cl)ccc2Cl)=NO1)B(O)O (stereo partly drawn) [Example 143, ((1R)-1-(5-benzyl-3-(((2,5-dichlorophenyl)sulfonamido)methyl)-4,5-dihydroisoxazol-5-carboxamido)-3-methylbutyl)boronic acid]	< 10	> 500
